# Source: patent publication US20260130888A1, “NOVEL THERAPEUTIC MOLECULE” (Pillai Universal LLC, priority 2022, published 2026)
# Entries after “also recorded” stand apart in the source; their conditions may differ.
# Legend:
# p-IRβ, IR = experiment: Phosphorylated insulin-signaling molecules in muscles and liver of diabetic mice (discussion); format: in vivo; conditions: oral administration, dose-dependent
# From the text: (§1) Next, we examine the effect of COMPOUND Ion PTP-1B inhibition and activation of IR-β phosphorylation by PCR and Western blotting studies. In the current study, we used the type 2 diabetic C57BL/6J STZ, HFD+STZ C57BL/6J, db/db mouse model to assess the antihyperglycemic property. […] As shown in FIGS. 6&8, There is a diminish in the tyrosine phosphorylation levels of the IR β- in the skeletal muscle and liver of diabetic mice, involving the PTP1B function in all the diabetic-treated mice. According to Tagami et al. expression of PTP1B activity up regulated in the skeletal muscle and adipose tissue of Otsuka Long-Evans Tokush-in fat rats. Haj et al. established that the hepatic-specific over expression of PTP1B confirmed insulin resistance no longer merely in the liver but also in other tissues in PTP1B knockout mice. For that reason, PTP1B plays a main function in diabetic mice. When PTP1B gets activated, the insulin signaling transduction pathway blocked, and the level of plasma glucose is disturbed, ensuing in the increased plasma glucose level. […] The increased in the tyrosine phosphorylation expression level of the IR β-subunit in the skeletal muscle and liver of Compound I treated diabetic mice point out the enhancement of insulin sensitivity in the entire animal model tested.
# db/db diabetic mice [1] = experiment: Effect on body weight, total cholesterol, plasma glucose and triglyceride levels of db/db diabetic mice; format: in vivo; conditions: 100 and 200 mg/kg b.wt, 2 weeks, vs control mice
# [2] = tested on: HFD+STZ type II diabetic mice; experiment: Effect on body weight, plasma glucose, total cholesterol and triglyceride levels of HFD+STZ type II diabetic mice; format: in vivo, C57BL/6J mice
# From the text: Effect of Compound I on body weight, Total cholesterol, Plasma glucose, and triglyceride levels of HFD+STZ type II diabetic mice:
# Eight weeks of dietary manipulation with high-fat diet increased the body weight in all the groups when compared to NPD group.
# Type 2 diabetes mellitus and its related complications have arisen as serious health problems in modern societies. The cutting edge technology of drug development is to identify small molecule drugs helpful in controlling both diabetes and obesity. In this study, we assess the impact of a small molecule Compound I having insulin mimicking effect by inhibiting PTP-1B and activating IR-β phosphorylation in insulin-sensitive tissues by in vivo animal model. […] The induction of diabetes mellitus in mice confirmed by elevated levels of fasting plasma glucose. Plasma glucose level measured in normal and experimental mice.
# PI3K, GLUT4 = experiment: PI3K and GLUT4 gene expression in diabetic mice (discussion); format: in vivo
# From the text: as §1, with “tested. […]” for “tested.”
# PTP1B [3] = experiment: Insulin mimicking effect in liver and skeletal muscle of HFD+STZ mice, PCR analysis: PTP1B; format: in vivo; conditions: dose-dependent, p<0.05
# From the text: (§2) Insulin Mimicking Effect of Compound I in Liver and Skeletal Muscle of HFD+STZ Type II Diabetic Mice
# (§3) In the insulin signaling pathway, protein tyrosine phosphatase 1B (PTP1B) considered playing a vital role in the intracellular signal transduction process and metabolism. There is compelling confirmation that PTP1B, is principally responsible for the dephosphorylation of insulin receptor (IR-β), as a result, leading to the block of insulin signaling transduction pathway. […] (FIG. 7, a & b)
# inflammatory parameters = experiment: Inflammatory mediators in HFD+STZ type II diabetic mice; format: in vivo
# From the text: FIG. 7 depicts the Insulin mimicking effect of compound I in Liver and skeletal muscle of HFD+STZ type II diabetic mice • a. Insulin Mimetic Effect • b. Inflammatory mediators
# as §3
# db/db diabetic mice [4] = experiment: Effect on body weight, total cholesterol, plasma glucose and triglyceride levels of db/db diabetic mice; format: in vivo
# From the text: Effect of Compound I on Body Weight Total Cholesterol, Plasma Glucose, and Triglyceride Levels of db/db Diabetic Mice
# It is well-known that there is an increase of serum lipid concentration in people with diabetes.
# db/db mouse is a genetic obesity diabetic animal model produced with the aid of the shortage of leptin receptor. The pathogenesis features of T2DM in db/db mice was similar to those in human type 2 diabetes, including hyperglycemia, obesity, and insulin resistance. Current years, db/db mice have been broadly used in animal experiments to set up the T2DM model. We have investigated whether Compound I include IR activators with insulin-mimetic and insulin-sensitizing activity by means of evaluating their effects on IR signaling. Compound I (100 mg/kg and 200 mg/kg b.wt) treatment for 7 days reduced food consumption and body weight in the db/db mice, an inherited obese animal model (FIG. 5, a-d). […] Based on these findings, further studies on Compound I have been carried out in the subsequent experiments to explore their inhibitory activity against PTP1B.
# p-IRβ = target: T1, p-IRβ (Mus musculus, UniProt P15208); experiment: Insulin mimicking effect in skeletal muscle and liver of db/db mice, Western blot and PCR: p-IRβ; format: in vivo; conditions: vs non-treated control group
# T1 construct: from tissue; host or cells: skeletal muscle and liver of db/db mice
# Experimental: (§4) Insulin Mimicking Effect of COMPOUND I in Skeletal Muscle and Liver of db/db Mice
# (§5) To further utilize the insulin mimetic effect of Compound I, the key proteins in PTP1B and PI3K/Akt signaling pathway were evaluated using Western blot and PCR after treatment with Compound I. Western blotting and PCR analysis have been carried out to verify the expression of PTP1B and IR β in skeletal muscle and liver to establish the inhibition effect of Compound I towards PTP1B.
# PTP1B [5] = experiment: Insulin mimicking effect in skeletal muscle and liver of db/db mice, Western blot and PCR: PTP1B; format: in vivo; conditions: vs control group, p<0.01
# Experimental: as §4, §5
# insulin receptor (IR-β) = experiment: Insulin mimicking effect in liver and skeletal muscle of HFD+STZ mice, PCR analysis: IR-β; format: in vivo; conditions: dose-dependent
# From the text: as §2, §3
# [6] = tested on: IRS-1, IRS-2, PI3K, Glut4, Akt; experiment: Liver insulin resistance in C57BL/6J-db/db mice: expression of insulin signaling genes; format: in vivo; conditions: vs C57BL/6J-db/db control group, p<0.05
# From the text: Effect of Compound I on Liver Insulin Resistance in the C57BL/6J-db/Dbmice
# The expression of insulin signaling genes such as IRS-1, IRS-2, PI3K, Glut4, Akt in the livers of the db/db mice reduced noticeably when compared with that of the normal mice. There was a significant enhance within the activation of all the examined genes in the C57BL/6J-db/db treatment group compared to that of normal control group FIG. 8.
# [7] = tested on: IRS-1, IRS-2, PI3K, Glut4 and Akt; experiment: Expression of diabetic-associated gene transcripts in streptozotocin-induced diabetic mice, semiquantitative RT-PCR; format: in vivo
# Experimental: One of the mechanisms which can stimulate or enhance glucose uptake in cells is the elevated translocation of glucose transporter 4 (GLUT 4) from the intracellular site to the plasma membrane. […] The expression of diabetic-related, gluconeogenic and glycolytic genes, in streptozotocin-induced diabetic mice, were treated with Compound I was determined using semiquantitative RT-PCR. As the internal control, GAPDH the band density of each target gene normalized to the band density of GAPDH of the sample.
# [8] = 14 days after treatment, dose-dependent, vs control mice
# [9] = C57BL/6J mice fed high-fat diets, 7 days after injection, vs control mice
# [10] = low and high doses (100 and 200 mg/kg), vs diabetic group
# [11] = 100 and 200 mg/kg b.wt, treatment for 7 days
# [12] = 7 days after treatment, vs control mice
# [13] = Compound I, dose-dependent, high dose better (P<0.05)
# [14] = Metformin 250 mg/kg b.wt, vs diabetic group
# [15] = metformin-treated group vs model group
# T1 sequence (P15208 753-1372 limits assumed): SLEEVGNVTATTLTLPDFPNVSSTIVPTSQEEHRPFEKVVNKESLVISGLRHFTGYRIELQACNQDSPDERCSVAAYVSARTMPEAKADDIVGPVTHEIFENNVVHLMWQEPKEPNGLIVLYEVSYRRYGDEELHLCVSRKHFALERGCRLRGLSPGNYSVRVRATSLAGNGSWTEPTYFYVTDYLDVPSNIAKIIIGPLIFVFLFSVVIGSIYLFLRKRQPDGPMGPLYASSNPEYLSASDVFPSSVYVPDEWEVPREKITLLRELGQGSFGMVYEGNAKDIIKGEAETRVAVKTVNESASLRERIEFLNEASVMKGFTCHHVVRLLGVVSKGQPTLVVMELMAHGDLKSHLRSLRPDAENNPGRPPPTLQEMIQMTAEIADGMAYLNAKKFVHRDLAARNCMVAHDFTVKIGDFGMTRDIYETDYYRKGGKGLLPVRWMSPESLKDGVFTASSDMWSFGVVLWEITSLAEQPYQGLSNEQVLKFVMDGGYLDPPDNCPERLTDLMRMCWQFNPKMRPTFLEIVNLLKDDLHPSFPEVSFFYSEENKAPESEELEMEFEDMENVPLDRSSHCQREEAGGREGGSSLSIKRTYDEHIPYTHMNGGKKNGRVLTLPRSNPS
# T1 sequence (P15208 28-748 partner limits assumed): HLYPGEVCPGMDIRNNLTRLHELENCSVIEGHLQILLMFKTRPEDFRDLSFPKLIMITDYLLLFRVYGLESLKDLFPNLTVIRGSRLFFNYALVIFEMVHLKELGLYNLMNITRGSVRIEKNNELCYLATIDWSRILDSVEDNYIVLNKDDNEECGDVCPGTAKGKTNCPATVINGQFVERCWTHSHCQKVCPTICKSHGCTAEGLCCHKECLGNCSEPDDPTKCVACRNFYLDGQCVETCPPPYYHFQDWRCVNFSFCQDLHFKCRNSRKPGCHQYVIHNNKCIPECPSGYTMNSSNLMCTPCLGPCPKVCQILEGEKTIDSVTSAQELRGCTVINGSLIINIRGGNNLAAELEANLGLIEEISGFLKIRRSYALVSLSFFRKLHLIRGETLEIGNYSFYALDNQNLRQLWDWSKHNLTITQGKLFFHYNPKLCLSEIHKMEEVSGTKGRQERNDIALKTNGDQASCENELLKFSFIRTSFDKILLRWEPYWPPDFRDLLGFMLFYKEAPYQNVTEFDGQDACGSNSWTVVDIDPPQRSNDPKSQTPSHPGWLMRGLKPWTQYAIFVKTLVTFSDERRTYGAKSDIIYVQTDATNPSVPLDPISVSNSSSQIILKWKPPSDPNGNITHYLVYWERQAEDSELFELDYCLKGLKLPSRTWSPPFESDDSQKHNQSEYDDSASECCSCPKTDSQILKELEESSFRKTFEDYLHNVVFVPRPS
structure (smiles),measurement,setting,value
"COc1cc(CO)cc2c1[nH]c1c(/C(C)=C/C(=O)O)cccc12 [Compound I, (2E)-3-[6-(hydroxymethyl)-8-methoxy-9H carbazol-1-yl]but-2-enoic acid]","expression level of proteins (p-IRβ, IR)","p-IRβ, IR",significantly augmented
same,body weights,db/db diabetic mice [1],significantly decreased
same,food intake,db/db diabetic mice [1]; p>0.05,extensively lower
same,food intake,"[2]; 100 and 200 mg/kg b.wt, C57BL/6J mice fed high-fat diets for 7 days, vs control mice",extensively decreased
same,Fasting plasma glucose,[2]; [8],markedly diminished
same,insulin levels,[2]; [8],markedly diminished; also recorded: markedly reduced
same,triglyceride levels,[2]; [8],markedly diminished; also recorded: markedly reduced
same,Fasting plasma glucose levels,[2]; [9],markedly diminished
same,insulin levels,[2]; [9],markedly diminished
same,triglyceride levels,[2]; [9],markedly diminished
same,body weights,"[2]; C57BL/6J mice fed high-fat diets, 7 days, vs normal control mice",widely dropped
same,food intake,"[2]; Compound I 100 mg/kg and 200 mg/kg b.wt, 14 days, C57BL/6J mice fed high-fat diets, vs control mice, p<0.001",drastically lower
same,body weights,"[2]; Compound I 100 and 200 mg/kg b.wt, 14 days, vs control mice",significantly reduce
same,decrease in Plasma glucose levels,[2]; [10],approximately two fold
same,decrease in triglycerides levels,[2]; [10],approximately two fold
same,total cholesterol levels reduced,[2]; [10],2.5 fold
same,plasma glucose level,"[2]; oral 100 mg/kg and 200 mg/kg b.wt, STZ-treated diabetic mice",highly significant effect by reducing
same,PI3K and GLUT4 expression levels,"PI3K, GLUT4; in contrast to diabetic mice",enhanced significantly
same,GLUT4 mRNA expression,"PI3K, GLUT4; vs normal control group",extremely expressed
same,expression of PTP1B,PTP1B [3],significantly decreased
same,expression of inflammatory parameters,inflammatory parameters,significantly reduced
same,free fatty acids levels,"db/db diabetic mice [4]; 100 and 200 mg/kg b.wt, 7 days, vs normal control",reduced
same,body weight,db/db diabetic mice [4]; [11],reduced
same,food consumption,db/db diabetic mice [4]; [11],reduced
same,Fasting plasma glucose,db/db diabetic mice [4]; [12],markedly lower; also recorded: reduced
same,insulin,db/db diabetic mice [4]; [12],markedly lower; also recorded: reduced
same,triglyceride levels,db/db diabetic mice [4]; [12],markedly lower; also recorded: reduced
same,total cholesterol concentration,db/db diabetic mice [4]; [13],lowered
same,triglycerides concentration,db/db diabetic mice [4]; [13],lowered
same,p-IRβ,p-IRβ,significantly increased
same,PTP1B expression,PTP1B [5],downregulated substantially
same,IR-β levels,insulin receptor (IR-β),concomitant increase
same,expression of all genes involved in insulin signaling pathway,[6],notably enhanced
same,"expression of all the gene transcripts, fold increased expression","[7]; Compound I 100 mg/kg, Liver tissue",~2.5 fold
same,"expression of all the gene transcripts, fold change","[7]; Compound I 100 mg/kg, skeletal muscle",~3.5 fold change
"CN(C)C(=N)N=C(N)N [Metformin, reference compound]",glucose,[2]; [14],markedly reduced
same,total cholesterol,[2]; [14],markedly reduced
same,triglycerides,[2]; [14],markedly reduced
same,serum total cholesterol levels,db/db diabetic mice [4]; [15],lower than in the model group
same,serum triglyceride levels,db/db diabetic mice [4]; [15],lower than in the model group
same,levels of insulin-signaling gene expression,"[7]; Metformin-treated groups, skeletal muscle and liver tissue, p<0.05",increased levels
